The source of these data is ChEMBL document CHEMBL1201862, “PubChem BioAssay data set” (2004).

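Assay format: 96-well plates, 48-hour exposure. GI50: concentration for 50% inhibition of growth.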 Activity calls are given as the source filed them. Rule as the data show it: active = GI50 up to about 1.1 µM and inactive = higher.

Among the test systems are HCC 2998; HCT-15; UACC-62; HCT-116; HOP-62; M14; OVCAR-5; CCRF-CEM; SK-MEL-2; SNB-19; HL-60; RPMI-8226; NCI-H460; NCI-H23; SK-MEL-28; U-251.
What all share (assay): NCI-60 cell line screen, 48 h

Turning to `COc1ccc2c(c1)[n+]([O-])c(C(=O)CC(=O)C(=O)Nc1cccc(Cl)c1C)c(C)[n+]2[O-]`, the GI50 is > 100 µM (inactive) in the assay with HCC 2998; more than 100 µM in the assay with HCT-15; > 100 µM (inactive) with UACC-62; > 100 µM (inactive) in the assay with HCT-116; > 100 µM (inactive) with HOP-62; > 100 µM (inactive) in the assay with M14. Further, the GI50 was > 100 µM (inactive) in the assay with OVCAR-5; 21.7 µM (inactive) in the assay on CCRF-CEM; > 100 µM (inactive) in the assay with SK-MEL-2; > 100 µM (inactive) in the assay on SNB-19; 44.5 µM (inactive) in the assay on HL-60; 83.6 µM (inactive) in the assay on RPMI-8226. In addition, the GI50 in the assay with NCI-H460, in the assay on NCI-H23, in the assay on SK-MEL-28 and with U-251 was > 100 µM (inactive) in each case.
For `Cc1cc(C)nc(NS(=O)(=O)c2ccc(NC(=O)c3cccc4c(Nc5ccc(S(N)(=O)=O)cc5)c5ccccc5nc34)cc2)n1`, the GI50 was 14.8 µM (inactive) in the assay on HCC 2998; more than 100 µM with HCT-15; 2.88 µM (inactive) with UACC-62; 7.64 µM (inactive) with HCT-116; 26.7 µM (inactive) in the assay on HOP-62; > 82.6 µM (inactive) with M14. Besides, the GI50 with OVCAR-5 was > 100 µM (inactive); with CCRF-CEM, 6.82 µM (inactive); in the assay on SK-MEL-2 it was 10.2 µM (inactive); in the assay with SNB-19, 4.02 µM (inactive); in the assay with HL-60 it was 7.4 µM (inactive); with RPMI-8226, 12.8 µM (inactive). Moreover, the GI50 with NCI-H460 is 44.1 µM (inactive); in the assay with NCI-H23 it was 37.1 µM (inactive); in the assay with SK-MEL-28, 3.09 µM (inactive); in the assay on U-251 it was 8.89 µM (inactive).
For the compound `O=C1c2ccccc2C(Br)(Br)c2ccccc21`, the GI50 is > 31.6 µM (inactive) in the assay on HCC 2998; more than 31.6 µM in the assay with HCT-15; > 100 µM (inactive) in the assay with UACC-62; > 31.6 µM (inactive) in the assay on HCT-116; > 10 µM (inactive) in the assay on HOP-62; > 31.6 µM (inactive) in the assay on M14. The GI50 was > 31.6 µM (inactive) with OVCAR-5; > 31.6 µM (inactive) in the assay with CCRF-CEM; > 31.6 µM (inactive) with SK-MEL-2; > 31.6 µM (inactive) with SNB-19; > 31.6 µM (inactive) in the assay with HL-60; > 10 µM (inactive) in the assay with RPMI-8226. For the same compound, the GI50 in the assay with NCI-H460 was > 31.6 µM (inactive); in the assay on NCI-H23, > 100 µM (inactive); in the assay on SK-MEL-28, > 31.6 µM (inactive); in the assay on U-251, > 31.6 µM (inactive).
`CC1=NN(C(=O)c2ccc(Cl)cc2)C(=O)/C1=C/c1ccc(O)cc1`: the GI50 in the assay on HCC 2998 is > 100 µM (inactive); in the assay on HCT-15 it was more than 100 µM; in the assay on UACC-62, > 100 µM (inactive); in the assay with HCT-116 it was > 100 µM (inactive); in the assay on HOP-62, > 100 µM (inactive); with M14, > 100 µM (inactive). For the same compound, the GI50 with OVCAR-5, in the assay with CCRF-CEM, in the assay with SK-MEL-2, in the assay with SNB-19, in the assay with HL-60 and in the assay with RPMI-8226 was > 100 µM (inactive) throughout. Moreover, the GI50 in the assay on NCI-H460, in the assay with NCI-H23, with SK-MEL-28 and in the assay with U-251 was > 100 µM (inactive) throughout.
Regarding `COC(=N)c1csc(C2OC(CO)C(O)C2O)n1` (stereo not given), the GI50 is > 100 µM (inactive) with HCC 2998; more than 100 µM with HCT-15; > 100 µM (inactive) in the assay on UACC-62; > 100 µM (inactive) in the assay on HCT-116; > 100 µM (inactive) in the assay with HOP-62; > 100 µM (inactive) in the assay on M14. The GI50 in the assay on OVCAR-5 was > 100 µM (inactive); in the assay with CCRF-CEM, 86.5 µM (inactive); with SK-MEL-2, > 100 µM (inactive); in the assay on SNB-19 it was > 100 µM (inactive); with HL-60, 38.5 µM (inactive); with RPMI-8226 it was > 100 µM (inactive). Also, the GI50 in the assay with NCI-H460, in the assay on NCI-H23, in the assay with SK-MEL-28 and with U-251 was > 100 µM (inactive) in each case.
